Reference: ChEMBL document CHEMBL1143657, “Saucerneol B derivatives as human acyl-CoA: cholesterol acyltransferase inhibitors” (Bioorg Med Chem Lett, 2005)

The compounds below were run against T1, Sterol O-acyltransferase 2 (Homo sapiens) (UniProt O75908) (assay: In vitro inhibition of human Acyl coenzyme A:cholesterol acyltransferase 2 expressed in Hi5 cells at 125 uM). Details: BTI-TN-5B1-4.
T1 sequence (whole entry): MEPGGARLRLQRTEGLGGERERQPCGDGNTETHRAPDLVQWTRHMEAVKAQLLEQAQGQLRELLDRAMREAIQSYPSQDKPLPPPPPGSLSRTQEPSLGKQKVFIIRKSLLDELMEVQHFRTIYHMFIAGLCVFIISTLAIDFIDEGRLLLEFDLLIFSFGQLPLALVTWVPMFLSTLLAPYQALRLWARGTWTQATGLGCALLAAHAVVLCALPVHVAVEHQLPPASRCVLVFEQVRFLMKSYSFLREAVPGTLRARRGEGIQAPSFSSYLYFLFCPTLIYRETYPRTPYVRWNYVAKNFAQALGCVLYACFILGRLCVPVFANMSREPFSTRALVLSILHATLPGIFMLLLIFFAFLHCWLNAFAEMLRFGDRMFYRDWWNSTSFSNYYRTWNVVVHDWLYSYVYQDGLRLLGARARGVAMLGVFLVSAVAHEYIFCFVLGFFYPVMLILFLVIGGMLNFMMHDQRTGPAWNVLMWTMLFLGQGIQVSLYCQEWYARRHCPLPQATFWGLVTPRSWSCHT

SMILES | inhibition
COc1ccc([C@@H]2O[C@H](c3ccc(OC(OC)C(OC)c4ccc5c(c4)OCO5)c(OC)c3)[C@H](C)[C@@H]2C)cc1OC (some centres not stated) | 45%
CCCCCCCOC(c1ccc2c(c1)OCO2)C(OC)Oc1ccc([C@H]2O[C@@H](c3ccc(OC)c(OC)c3)[C@@H](C)[C@H]2C)cc1OC (some centres not stated) | 26%
CCCOC(c1ccc2c(c1)OCO2)C(OC)Oc1ccc([C@H]2O[C@@H](c3ccc(OC)c(OC)c3)[C@@H](C)[C@H]2C)cc1OC (some centres not stated) | 33%
CCCCCOC(c1ccc2c(c1)OCO2)C(OC)Oc1ccc([C@H]2O[C@@H](c3ccc(OC)c(OC)c3)[C@@H](C)[C@H]2C)cc1OC (some centres not stated) | 33%

Next, values leading:

inhibition | SMILES
10% | CCCCCCCCCOC(c1ccc2c(c1)OCO2)C(OC)Oc1ccc([C@H]2O[C@@H](c3ccc(OC)c(OC)c3)[C@@H](C)[C@H]2C)cc1OC (some centres not stated)
29% | CCOC(c1ccc2c(c1)OCO2)C(OC)Oc1ccc([C@H]2O[C@@H](c3ccc(OC)c(OC)c3)[C@@H](C)[C@H]2C)cc1OC (some centres not stated)
19% | CCCCCCCCOC(c1ccc2c(c1)OCO2)C(OC)Oc1ccc([C@H]2O[C@@H](c3ccc(OC)c(OC)c3)[C@@H](C)[C@H]2C)cc1OC (some centres not stated)
33% | CCCCCCOC(c1ccc2c(c1)OCO2)C(OC)Oc1ccc([C@H]2O[C@@H](c3ccc(OC)c(OC)c3)[C@@H](C)[C@H]2C)cc1OC (some centres not stated)
28% | CCCCOC(c1ccc2c(c1)OCO2)C(OC)Oc1ccc([C@H]2O[C@@H](c3ccc(OC)c(OC)c3)[C@@H](C)[C@H]2C)cc1OC (some centres not stated)

What follows are compounds tested against T2, Sterol O-acyltransferase 1 (Homo sapiens) (UniProt P35610) (assay: In vitro inhibition of human Acyl coenzyme A:cholesterol acyltransferase 1 expressed in Hi5 cells). Details: BTI-TN-5B1-4, concentration not given here.
T2 sequence (whole entry): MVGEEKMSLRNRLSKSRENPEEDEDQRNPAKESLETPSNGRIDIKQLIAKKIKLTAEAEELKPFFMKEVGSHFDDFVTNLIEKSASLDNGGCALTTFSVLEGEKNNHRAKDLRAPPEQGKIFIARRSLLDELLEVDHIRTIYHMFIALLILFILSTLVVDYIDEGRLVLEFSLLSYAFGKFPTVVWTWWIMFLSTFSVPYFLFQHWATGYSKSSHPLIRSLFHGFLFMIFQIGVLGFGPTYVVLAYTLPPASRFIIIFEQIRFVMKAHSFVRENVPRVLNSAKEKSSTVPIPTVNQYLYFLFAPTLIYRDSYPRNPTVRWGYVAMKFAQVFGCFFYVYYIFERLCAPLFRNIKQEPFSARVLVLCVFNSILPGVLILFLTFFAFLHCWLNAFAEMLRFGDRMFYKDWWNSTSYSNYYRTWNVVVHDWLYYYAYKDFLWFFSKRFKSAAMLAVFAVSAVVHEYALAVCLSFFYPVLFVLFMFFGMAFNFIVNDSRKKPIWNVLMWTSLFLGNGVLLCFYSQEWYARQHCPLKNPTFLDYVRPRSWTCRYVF

inhibition | SMILES
25% | CCCCCCCCCOC(c1ccc2c(c1)OCO2)C(OC)Oc1ccc([C@H]2O[C@@H](c3ccc(OC)c(OC)c3)[C@@H](C)[C@H]2C)cc1OC (some centres not stated)
44% | CCCCCCCCOC(c1ccc2c(c1)OCO2)C(OC)Oc1ccc([C@H]2O[C@@H](c3ccc(OC)c(OC)c3)[C@@H](C)[C@H]2C)cc1OC (some centres not stated)

These compounds were tested against T3, Sterol O-acyltransferase 2 (Homo sapiens, UniProt O75908) (assay: In vitro inhibitory concentration against human Acyl coenzyme A:cholesterol acyltransferase 2 expressed in Hi5 cells). Details: not given.
T3 sequence (O75908 whole entry): T1 sequence (whole entry)
Set-up: species or system BTI-TN-5B1-4

IC50 | SMILES
8 µM | COc1ccc(C(O)C(C)Oc2ccc([C@H]3O[C@H](c4ccc(OC(C)C(O)c5ccc(OC)c(OC)c5)c(OC)c4)[C@H](C)[C@H]3C)cc2OC)cc1OC (some centres not stated)
